Test results as given in BindingDB's records for doi:10.1021/jm00155a029 (1986).

Assay: Compound was tested for the inhibitory effect against Gamma-amino-N-butyrate transaminase from bacteria

NC/C=C(\CF)C(=O)O [(2Z)-4-ammonio-2-(fluoromethyl)but-2-enoate]
Ki: 9 µM
